Experiments:
Format in all cases: in vivo
[1] = system: Yellow fever mosquito (Aedes aegyptii); test: Test B.4 Control of yellow fever mosquito, curative ultrasonic spraying of larvae in liquid diet; details: 2 DAT
Experimental: Test B.4 Control of Yellow fever mosquito (Aedes aegyptii) Test principle: Curative ultrasonic spraying of larvae in liquid diet
For evaluating control of Aedes aegyptii, the assay was conducted in microtiter plates (MTP's), wherein each well was filled with 0.2 ml of a Aedes aegyptii suspension of 5 to 15 freshly hatched larvae in a liquid diet of 200 ppm yeast in water, prepared directly before spraying.
The compounds were formulated at desired concentration using a solution containing 75% v/v water and 25% v/v DMSO. Different concentrations of formulated compounds were applied at 2.5 μl, using a ultrasonic spraying, at two replications.
The MTPs were sealed with the matching lids in a climatized test chamber at about 28° C.+1° C. and about 80+5% RH (relative humidity) and at 3500+500 lux of fluorescent light.
Assessment was made 2 days after treatment (DAT) using as criterion movement of the larvae. Valid assessment values were at level 0, 50 and 100, wherein 100 indicates no movement, 50 indicates few movement and 0 indicates moderate to high movement.

Caenorhabditis elegans = test: Test B.5 Control of Caenorhabditis elegans, curative ultrasonic spraying of nematodes in liquid diet; details: 4 DAT
Experimental: Test B.5 Control of Caenorhabditis elegans Test principle: Curative ultrasonic spraying of nematodes in liquid diet
For evaluating control of Caenorhabditis elegans the test unit consisted of microtiter plates (MTP), wherein each well was filled with 0.18 ml of a C. Elegans suspension containing 60 to 100 individuals of C. elegans at mixed life stages in a liquid diet.
The compounds were formulated at desired concentration using a solution containing 75% v/v water and 25% v/v DMSO. Different concentrations of formulated compounds were applied at 5 μl by ultrasonic spraying onto the liquid diet, at two replications. After application, the treated microtiterplates were incubated in a climatized test chamber at temperature of about 18+/−1° C. and 70+/−5% RH in the dark.
Assessment was made 4 days after treatment (DAT) using as criterion movement of nematodes. Valid assessment values were at level 0, 50 and 100, wherein 100 indicates no movement, 50 indicates few movement and 0 indicates moderate to high movement.

[2] = system: Boll Weevil (Anthonomus grandis); test: Test B.2 Control of boll weevil, eggs on sprayed insect diet in 24-well microtiter plates; details: 5 days
Experimental: Test B.2 Control of Boll Weevil (Anthonomus grandis)
For evaluating control of boll weevil (Anthonomus grandis) the test unit consisted of 24-well-microtiter plates containing an insect diet and 20-30 A. grandis eggs.
The compounds or mixtures were formulated using a solution containing 75% water and 25% DMSO. Different concentrations of formulated compounds or mixtures were sprayed onto the insect diet at 20 μl, using a custom built micro atomizer, at two replications.
(§1) For experimental mixtures in these tests identical volumes of both mixing partners at the desired concentrations respectively, were mixed together.
After application, microtiter plates were incubated at about 23±1° C. and about 50±5% RH for 5 days. Egg and larval mortality was then visually assessed.

[3] = system: Vetch Aphid (Megoura viciae); test: Test B.1 Control of vetch aphid, sprayed broad bean leaf disks in 24-well microtiter plates; details: 5 days
Experimental: Test B.1 Control of Vetch Aphid (Megoura viciae)
For evaluating control of vetch aphid (Megoura viciae) through contact or systemic means the test unit consisted of 24-well-microtiter plates containing broad bean leaf disks.
The compounds or mixtures were formulated using a solution containing 75% water and 25% DMSO. Different concentrations of formulated compounds or mixtures were sprayed onto the leaf disks at 2.5 μl, using a custom built micro atomizer, at two replications.
For experimental mixtures in these tests identical volumes of both mixing partners at the desired concentrations respectively, were mixed together. After application, the leaf disks were air-dried and 5-8 adult aphids placed on the leaf disks inside the microtiter plate wells. The aphids were then allowed to suck on the treated leaf disks and incubated at about 23±1° C. and about 50±5% RH (relative humidity) for 5 days. Aphid mortality and fecundity was then visually assessed.

[4] = system: Green Peach Aphid (Myzus persicae); test: Test B.3 Control of green peach aphid, systemic, liquid artificial diet under membrane; details: 3 days
Source text: Test B.3 Control of Green Peach Aphid (Myzus persicae)
For evaluating control of green peach aphid (Myzus persicae) through systemic means the test unit consisted of 96-well-microtiter plates containing liquid artificial diet under an artificial membrane.
The compounds or mixtures were formulated using a solution containing 75% water and 25% DMSO. Different concentrations of formulated compounds or mixtures were pipetted into the aphid diet, using a custom built pipetter, at two replications.
as §1
After application, 5 -8 adult aphids were placed on the artificial membrane inside the microtiter plate wells. The aphids were then allowed to suck on the treated aphid diet and incubated at about 23±1° C. and about 50±5% RH for 3 days. Aphid mortality and fecundity was then visually assessed.

[5] = system: Tobacco Budworm (Heliothis virescens); test: Test B.6 Control of tobacco budworm, eggs on sprayed insect diet in 96-well microtiter plates; details: 5 days
Experimental: Test B.6 Control of Tobacco Budworm (Heliothis virescens)
For evaluating control of tobacco budworm (Heliothis virescens) the test unit consisted of 96-well-microtiter plates containing an insect diet and 15-25 H. virescens eggs.
The compounds or mixtures were formulated using a solution containing 75% water and 25% DMSO. Different concentrations of formulated compounds or mixtures were sprayed onto the insect diet at 10 μl, using a custom built micro atomizer, at two replications.
as §1
After application, microtiter plates were incubated at 28±1° C., 80±5% RH for 5 days. Egg and larval mortality was then visually assessed.

[6] = alphacypermethrin alone, 0.4 ppm
[7] = alpha cypermethrin alone, 10 ppm

Molecule: spinosad
- Average control % ([1]; spinosad alone, 2 ppm): 0%

Molecule: CCOCn1c(-c2ccc(Cl)cc2)c(C#N)c(Br)c1C(F)(F)F [Chlorfenapyr, chlorfenapyr]
- Average control % (Caenorhabditis elegans; chlorfenapyr alone, 10 ppm): 0%

Molecule: Cc1cc(C)c(C2=C(OC(=O)CC(C)(C)C)C3(CCCC3)OC2=O)c(C)c1 [Spiromesifen, spiromesifen]
- Average control % ([2]; spiromesifen alone, 500 ppm): 0%

Molecule: Cc1cc(F)c(-n2cnc3ccccc3c2=O)cc1[S+]([O-])CC(F)(F)F (stereo not drawn) [CE.I.35, 2-(2,2,2-trifluoroethylsufinyl)-4-(4-oxo-quinazolin-3-yl)-5-fluoro-toluol]
- Average control % ([2]; CE.I.35 alone, 500 ppm): 0%
- Average control % ([2]; CE.I.35 alone, 2500 ppm): 0%
- Average control % ([1]; CE.I.35 alone, 4 ppm): 0%
- Average control % ([1]; CE.I.35 alone, 500 ppm): 0%
- Average control % ([1]; CE.I.35 alone, 2500 ppm): 0%

Molecule: abamectin
- Average control % ([1]; abamectin alone, 2 ppm): 0%

Molecule: Cc1cc(F)c(-n2cnc3ccccc3c2=O)cc1SCC(F)(F)F [CE.I.34, 2-(2,2,2-trifluoroethylsufanyl)-4-(4-oxo-quinazolin-3-yl)-5-fluoro-toluol]
- Average control % ([3]; CE.I.34 alone, 100 ppm): 0%
- Average control % ([2]; CE.I.34 alone, 100 ppm): 0%
- Average control % ([4]; CE.I.34 alone, 4 ppm): 0%
- Average control % (Caenorhabditis elegans; CE.I.34 alone, 100 ppm): 0%

Molecule: CC1(C)C(C=C(Cl)Cl)C1C(=O)OC(C#N)c1cccc(Oc2ccccc2)c1 (stereo not drawn) [Alpha cypermethrin, alpha-cypermethrin]
- Average control % [5, 6]: 0%
- Average control % ([3]; alpha cypermethrin alone, 2 ppm): 0%
- Average control % [2, 7]: 0%
- Average control % [2, 6]: 0%
- Average control % [4, 7]: 0%
- Average control % [1, 7]: 0%

Molecule: CCC(C)(C)C(=O)OC1=C(c2ccc(Cl)cc2Cl)C(=O)OC12CCCCC2 [Spirodiclofen, spirodiclofen]
- Average control % ([5]; spirodiclofen alone, 3.2 ppm): 0%

Molecule: Cc1cc(F)c(-n2cnc3ccc(F)cc3c2=O)cc1[S+]([O-])CC(F)(F)F (stereo not drawn) [CE.I.31, 6-Fluoro-3-[2-fluoro-4-methyl-5-2(2,2,2-trifluoroethanesulfinyl)-phenyl]-3H-quinazolin-4-one]
- Average control % ([5]; CE.I.31 alone, 2000 ppm): 0%

Source: US20140221201A1, “INSECTICIDAL ACTIVE MIXTURES COMPRISING ARYLQUINAZOLINONE COMPOUNDS” (priority 2011, published 2014)
